Source: ChEMBL document CHEMBL4308841, “Synthesis, in vitro antiproliferative activity, and kinase inhibitory effects of pyrazole-containing diarylureas and diarylamides” (Eur J Med Chem, 2018)

Legend:
[1] = tested on: K562; assay: Growth inhibition of human K562 cells assessed as cell growth at 10 uM incubated for 48 hrs by sulforhodamine B assay relative to control; assay type: functional; settings: K562, 48 h, read-out: Activity
[2] = tested on: RPMI-8226; assay: Growth inhibition of human RPMI8226 cells assessed as cell growth at 10 uM incubated for 48 hrs by sulforhodamine B assay relative to control; assay type: functional; settings: RPMI-8226, 48 h, read-out: Activity
[3] = tested on: HOP-62; assay: Growth inhibition of human HOP62 cells assessed as cell growth at 10 uM incubated for 48 hrs by sulforhodamine B assay relative to control; assay type: functional; settings: HOP-62, 48 h, read-out: Activity
[4] = tested on: NCI-H23; assay: Growth inhibition of human NCI-H23 cells assessed as cell growth at 10 uM incubated for 48 hrs by sulforhodamine B assay relative to control; assay type: functional; settings: NCI-H23, 48 h, read-out: Activity
[5] = tested on: COLO 205; assay: Growth inhibition of human COLO205 cells assessed as cell growth at 10 uM incubated for 48 hrs by sulforhodamine B assay relative to control; assay type: functional; settings: COLO 205, 48 h, read-out: Activity
[6] = tested on: HCT-15; assay: Growth inhibition of human HCT15 cells assessed as cell growth at 10 uM incubated for 48 hrs by sulforhodamine B assay relative to control; assay type: functional; settings: HCT-15, 48 h, read-out: Activity
[7] = tested on: SW-620; assay: Growth inhibition of human SW620 cells assessed as cell growth at 10 uM incubated for 48 hrs by sulforhodamine B assay relative to control; assay type: functional; settings: SW-620, 48 h, read-out: Activity
[8] = tested on: SF-268; assay: Growth inhibition of human SF268 cells assessed as cell growth at 10 uM incubated for 48 hrs by sulforhodamine B assay relative to control; assay type: functional; settings: SF-268, 48 h, read-out: Activity
[9] = tested on: U-251; assay: Growth inhibition of human U251 cells assessed as cell growth at 10 uM incubated for 48 hrs by sulforhodamine B assay relative to control; assay type: functional; settings: U-251, 48 h, read-out: Activity
[10] = tested on: Malme-3M; assay: Growth inhibition of human MALME-3M cells assessed as cell growth at 10 uM incubated for 48 hrs by sulforhodamine B assay relative to control; assay type: functional; settings: read-out: Activity
[11] = tested on: UACC-62; assay: Growth inhibition of human UACC62 cells assessed as cell growth at 10 uM incubated for 48 hrs by sulforhodamine B assay relative to control; assay type: functional; settings: UACC-62, 48 h, read-out: Activity
[12] = tested on: IGROV-1; assay: Growth inhibition of human IGROV1 cells assessed as cell growth at 10 uM incubated for 48 hrs by sulforhodamine B assay relative to control; assay type: functional; settings: IGROV-1, 48 h, read-out: Activity
[13] = tested on: OVCAR-3; assay: Growth inhibition of human OVCAR3 cells assessed as cell growth at 10 uM incubated for 48 hrs by sulforhodamine B assay relative to control; assay type: functional; settings: OVCAR-3, 48 h, read-out: Activity
[14] = tested on: OVCAR-4; assay: Growth inhibition of human OVCAR4 cells assessed as cell growth at 10 uM incubated for 48 hrs by sulforhodamine B assay relative to control; assay type: functional; settings: OVCAR-4, 48 h, read-out: Activity
[15] = tested on: OVCAR-8; assay: Growth inhibition of human OVCAR8 cells assessed as cell growth at 10 uM incubated for 48 hrs by sulforhodamine B assay relative to control; assay type: functional; settings: OVCAR-8, 48 h, read-out: Activity
[16] = tested on: NCI/ADR-RES; assay: Growth inhibition of human NCI/ADR-RES cells assessed as cell growth at 10 uM incubated for 48 hrs by sulforhodamine B assay relative to control; assay type: functional; settings: read-out: Activity
[17] = tested on: SK-OV-3; assay: Growth inhibition of human SKOV3 cells assessed as cell growth at 10 uM incubated for 48 hrs by sulforhodamine B assay relative to control; assay type: functional; settings: SK-OV-3, 48 h, read-out: Activity
[18] = tested on: SN12C; assay: Growth inhibition of human SN12C cells assessed as cell growth at 10 uM incubated for 48 hrs by sulforhodamine B assay relative to control; assay type: functional; settings: read-out: Activity
[19] = tested on: DU-145; assay: Growth inhibition of human DU145 cells assessed as cell growth at 10 uM incubated for 48 hrs by sulforhodamine B assay relative to control; assay type: functional; settings: DU-145, 48 h, read-out: Activity
[20] = tested on: MDA-MB-231; assay: Growth inhibition of human MDA-MB-231 cells assessed as cell growth at 10 uM incubated for 48 hrs by sulforhodamine B assay relative to control; assay type: functional; settings: MDA-MB-231, 48 h, read-out: Activity
[21] = tested on: Hs-578T; assay: Growth inhibition of human Hs578T cells assessed as cell growth at 10 uM incubated for 48 hrs by sulforhodamine B assay relative to control; assay type: functional; settings: read-out: Activity
[22] = tested on: NCI-H226; assay: Growth inhibition of human NCI-H226 cells incubated for 48 hrs by sulforhodamine B assay; assay type: functional, cell-based; settings: NCI-H226, 48 h
[23] = tested on: CAKI-1; assay: Growth inhibition of human Caki1 cells incubated for 48 hrs by sulforhodamine B assay; assay type: functional, cell-based; settings: CAKI-1, 48 h
[24] = tested on: DU-145; assay: Growth inhibition of human DU145 cells incubated for 48 hrs by sulforhodamine B assay; assay type: functional, cell-based; settings: DU-145, 48 h
[25] = tested on: T47D; assay: Growth inhibition of human T47D cells incubated for 48 hrs by sulforhodamine B assay; assay type: functional, cell-based
[26] = tested on: SK-MEL-28; assay: Growth inhibition of human SK-MEL-28 cells assessed as cell growth at 0.01 uM incubated for 48 hrs by sulforhodamine B assay relative to control; assay type: functional; settings: SK-MEL-28, 48 h, read-out: Activity
[27] = tested on: OVCAR-3; assay: Growth inhibition of human OVCAR3 cells assessed as cell growth at 0.01 uM incubated for 48 hrs by sulforhodamine B assay relative to control; assay type: functional; settings: OVCAR-3, 48 h, read-out: Activity
[28] = tested on: CCRF-CEM; assay: Growth inhibition of human CCRF-CEM cells assessed as cell growth at 0.1 uM incubated for 48 hrs by sulforhodamine B assay relative to control; assay type: functional; settings: read-out: Activity
[29] = tested on: A549; assay: Growth inhibition of human A549/ATCC cells assessed as cell growth at 100 uM incubated for 48 hrs by sulforhodamine B assay relative to control; assay type: functional; settings: A549, 48 h, read-out: Activity
[30] = tested on: DU-145; assay: Growth inhibition of human DU145 cells assessed as cell growth at 100 uM incubated for 48 hrs by sulforhodamine B assay relative to control; assay type: functional; settings: DU-145, 48 h, read-out: Activity
[31] = read-out: pLC50 (the source's name) (converted)

For `COc1cc(Cl)cc(-c2nn(-c3cccc(NC(=O)Nc4cc(C(F)(F)F)cc(C(F)(F)F)c4)c3)cc2-c2ccncc2)c1`, the growth at 10 µM [1] was 6.4%, the growth at 10 µM [2] was -17.5% and the growth at 10 µM [3] was -41%. The growth at 10 µM [4] was -6.14%, the growth at 10 µM [5] was -64% and the growth at 10 µM [6] was 6.21%. The growth at 10 µM [7] was 7.18%, the growth at 10 µM [8] was 14.2% and the growth at 10 µM [9] was -58%. For the same compound, the growth at 10 µM [10] was -19.2%, the growth at 10 µM [11] was -21.2% and the growth at 10 µM [12] was 23%. For the same compound, the growth at 10 µM [13] was -1.62%, the growth at 10 µM [14] was 11.8% and the growth at 10 µM [15] was -2.46%. It also gave a growth at 10 µM [16] of 2.37%, a growth at 10 µM [17] of 6.84% and a growth at 10 µM [18] of 9.32%. The growth at 10 µM [19] was 13.1%, the growth at 10 µM [20] was -75% and the growth at 10 µM [21] was 5.82%. The IC50 [22] was 700 nM, the GI50 ([22]; read-out: GI50) was 704 nM and the LC50 ([22]; read-out: LC50) was over 100000 nM. For the same compound, the TGI ([22]; read-out: TGI) was 5170 nM, the GI50 ([22]; read-out: pGI50 (converted)) was 708 nM and the LC50 ([22]; read-out: pLC50 (converted)) was over 100000 nM. For the same compound, the TGI ([22]; read-out: pTGI (converted)) was 5130 nM, the IC50 [23] was 420 nM and the GI50 ([23]; read-out: GI50) was 420 nM. For the same compound, the TGI ([23]; read-out: TGI) was 4750 nM, the GI50 ([23]; read-out: pGI50 (converted)) was 417 nM and the CC50 [23, 31] was 61700 nM. For the same compound, the TGI ([23]; read-out: pTGI (converted)) was 4790 nM, the IC50 [24] was 470 nM and the GI50 ([24]; read-out: GI50) was 459 nM. For the same compound, the TGI ([24]; read-out: TGI) was 10600 nM, the GI50 ([24]; read-out: pGI50 (converted)) was 468 nM and the CC50 [24, 31] was 38900 nM. The TGI ([24]; read-out: pTGI (converted)) was 10700 nM, the IC50 [25] was 390 nM and the GI50 ([25]; read-out: GI50) was 390 nM. The CC50 ([25]; read-out: LC50 (the source's name)) was over 100000 nM, the TGI ([25]; read-out: TGI) was 4160 nM and the GI50 ([25]; read-out: pGI50 (converted)) was 389 nM. The CC50 [25, 31] was over 100000 nM, the TGI ([25]; read-out: pTGI (converted)) was 4170 nM and the growth at 0.01 µM [26] was 103%. The growth at 0.01 µM [27] was 105%, the growth at 0.1 µM [28] was 84% and the growth at 100 µM [29] was -68%. The growth at 100 µM [30] was -58%.
`COc1cc(Cl)cc(-c2nn(-c3cccc(NC(=O)c4ccc(Cl)c(Cl)c4)c3)cc2-c2ccncc2)c1` showed a growth at 10 µM [1] of 46.4%, a growth at 10 µM [2] of 46% and a growth at 10 µM [3] of 105%. The growth at 10 µM [4] was 75.2%, the growth at 10 µM [5] was 81.5% and the growth at 10 µM [6] was 57.9%. The growth at 10 µM [7] was 84.2%, the growth at 10 µM [8] was 82.4% and the growth at 10 µM [9] was 64.1%. The growth at 10 µM [10] was 96.4%, the growth at 10 µM [11] was 75.4% and the growth at 10 µM [12] was 71.6%. For the same compound, the growth at 10 µM [13] was 53.4%, the growth at 10 µM [14] was 58.6% and the growth at 10 µM [15] was 58.4%. It also gave a growth at 10 µM [16] of 61.4%, a growth at 10 µM [17] of 80.1% and a growth at 10 µM [18] of 69.6%. It also gave a growth at 10 µM [19] of 88.5%, a growth at 10 µM [20] of 33.9% and a growth at 10 µM [21] of 63.6%.
